Target: T1, KDM3A (Homo sapiens, UniProt Q9Y4C1)
T1 sequence (Q9Y4C1 1-1321): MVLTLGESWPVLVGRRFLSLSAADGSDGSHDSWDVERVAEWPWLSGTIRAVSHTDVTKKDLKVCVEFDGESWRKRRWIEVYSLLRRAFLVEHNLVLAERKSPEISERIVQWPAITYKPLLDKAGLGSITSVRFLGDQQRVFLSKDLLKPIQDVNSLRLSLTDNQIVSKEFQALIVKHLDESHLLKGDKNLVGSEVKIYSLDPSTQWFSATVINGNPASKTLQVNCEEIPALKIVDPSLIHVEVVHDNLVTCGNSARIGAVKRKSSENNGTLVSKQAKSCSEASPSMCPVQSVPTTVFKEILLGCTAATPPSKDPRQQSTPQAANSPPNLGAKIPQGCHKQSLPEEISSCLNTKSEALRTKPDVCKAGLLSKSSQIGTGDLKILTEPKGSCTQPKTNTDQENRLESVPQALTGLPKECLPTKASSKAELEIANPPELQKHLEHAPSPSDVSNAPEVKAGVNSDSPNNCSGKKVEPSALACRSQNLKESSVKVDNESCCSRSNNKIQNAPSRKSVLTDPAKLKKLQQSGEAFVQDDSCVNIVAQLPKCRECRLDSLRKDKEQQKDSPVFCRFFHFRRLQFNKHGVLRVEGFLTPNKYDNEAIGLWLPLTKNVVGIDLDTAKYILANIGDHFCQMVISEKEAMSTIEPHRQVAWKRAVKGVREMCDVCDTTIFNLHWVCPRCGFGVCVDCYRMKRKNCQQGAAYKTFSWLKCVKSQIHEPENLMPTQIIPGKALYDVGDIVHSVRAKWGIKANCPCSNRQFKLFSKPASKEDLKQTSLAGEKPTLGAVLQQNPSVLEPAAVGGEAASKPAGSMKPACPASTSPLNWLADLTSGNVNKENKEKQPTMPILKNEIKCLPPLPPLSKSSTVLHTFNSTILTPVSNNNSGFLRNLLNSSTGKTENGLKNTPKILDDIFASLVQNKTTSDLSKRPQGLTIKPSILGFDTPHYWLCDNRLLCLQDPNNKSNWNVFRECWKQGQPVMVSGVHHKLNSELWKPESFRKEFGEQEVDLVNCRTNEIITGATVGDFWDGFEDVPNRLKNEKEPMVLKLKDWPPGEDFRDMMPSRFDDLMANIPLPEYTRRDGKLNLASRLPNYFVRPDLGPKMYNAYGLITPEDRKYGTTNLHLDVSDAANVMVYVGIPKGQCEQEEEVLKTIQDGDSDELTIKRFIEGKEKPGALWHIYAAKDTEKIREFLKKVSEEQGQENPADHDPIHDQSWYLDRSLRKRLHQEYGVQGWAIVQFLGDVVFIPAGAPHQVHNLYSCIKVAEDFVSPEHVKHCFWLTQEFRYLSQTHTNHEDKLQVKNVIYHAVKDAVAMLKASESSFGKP
Assay: KDM3 AlphaScreen assay (Table 2, ASSAY 9)
Format: biochemical
Details: for IC50: ASSAY 9
Description: AlphaScreen assays were performed in 384-well plate format using white AlphaPlate™ (PerkinElmer®, USA), and transfer of pre-diluted compound (100 nL) was performed using a Janus® Workstation (PerkinElmer®, USA). All subsequent steps were carried out in assay buffer (50 mM 4-(2-hydroxyethyl)-1-piperazineethanesulfonic acid (HEPES), pH 7.5, 0.1% (wt/vol) bovine serum albumin (BSA) and 0.01% (vol/vol) Tween®20). In brief, 10 μL of assay buffer containing demethylase enzyme (2 nM Final) was pre-incubated for 15 min with dilutions of compound. The enzyme reaction was initiated by the addition of substrate (5 μL) consisting of L-ascorbic acid (100 μM Final), […] (OG) (5 μM Final), FAS (10 μM Final) and histone H3(1-21)K9Me3-GGK Biotin (100 nM Final). The enzyme reaction was allowed to proceed for 30 minutes and was stopped by the addition of 5 μL of assay buffer containing ethylenediaminetetraacetic acid (EDTA) (40 mM) and NaCl (1,200 mM). The final concentration of DMSO was 1%. Streptavidin donor beads (0.08 mg/ml) and protein-A-conjugated acceptor beads (0.08 mg/ml) were preincubated for 1 h with antibody to methyl mark (300 ng/mL Final), and the presence of histone H3 product methyl mark was detected using the preincubated AlphaScreen™ beads (5 μL). Detection was allowed to proceed for 2 h at room temperature, and the assay plates were read on the EnVision® 2104 plate reader. Data were normalized to the (no-enzyme) control, and the IC50 values were determined via nonlinear regression curve fit using GraphPad Prism 7.

| Structure (SMILES) | KDM3A inhibition, verdict in words on Table 2 | IC50 |
| --- | --- | --- |
| CN(C)c1ccc(CNc2ccc(F)cc2C(=O)N2CCN(Cc3ccc(N(C)C)cc3)CC2)cc1 [Compound 5, (2-((4-(dimethylamino)benzyl)amino)-5-fluorophenyl)(4-(4-(dimethylamino)benzyl)piperazin-1-yl)methanone] | potent KDM3A inhibitors | 7.65 µM |
| CN(C)c1ccc(-c2ccc(OC3CCN(C(=O)c4cn(S(=O)(=O)c5ccccc5)c5ccccc45)CC3)nc2)cc1 [Compound 11] | potent KDM3A inhibitors | 33.6 µM |
| CN(C)c1ccc(-c2ccc(OC3CCN(C(=O)c4ccccc4OC(=O)c4ccccc4O)CC3)nc2)cc1 [JADA196, 2-(4-((5-(4-(dimethylamino)phenyl)pyridin-2-yl)oxy)piperidine-1-carbonyl)phenyl 2-hydroxybenzoate] | – | 16 µM |
| CN(C)c1ccc(CNC(=O)/C=C\C(=O)N2CCC(Oc3ccc(-c4ccc(N(C)C)cc4)cn3)CC2)cc1 [KDM3-47, (Z)-N-(4-(dimethylamino)benzyl)-4-(4-((5-(4-(dimethylamino)phenyl)pyridin-2-yl)oxy)piperidin-1-yl)-4-oxobut-2-enamide] | – | 13 µM |
| CN(C)c1ccc(CCC(=O)Nc2cc(F)ccc2C(=O)N2CCC(Oc3ccc(-c4ccc(N(C)C)cc4)cn3)CC2)cc1 [KDM3-51, 3-(4-(dimethylamino)phenyl)-N-(2-(4-((5-(4-(dimethylamino)phenyl)pyridin-2-yl)oxy)piperidine-1-carbonyl)-5-fluorophenyl)propanamide] | – | 14 µM |
| CN(C)c1ccc(CCC(=O)Nc2ccc(C(F)(F)F)cc2C(=O)N2CCC(Oc3ccc(-c4ccc(N(C)C)cc4)cn3)CC2)cc1 [KDM3-53, 3-(4-(dimethylamino)phenyl)-N-(2-(4-((5-(4-(dimethylamino)phenyl)pyridin-2-yl)oxy)piperidine-1-carbonyl)-4-(trifluoromethyl)phenyl)propanamide] | – | 20 µM |
| CN(C)c1ccc(CCC(=O)Nc2ccc(OC(F)(F)F)cc2C(=O)N2CCC(Oc3ccc(-c4ccc(N(C)C)cc4)cn3)CC2)cc1 [KDM3-59, 3-(4-(dimethylamino)phenyl)-N-(2-(4-((5-(4-(dimethylamino)phenyl)pyridin-2-yl)oxy)piperidine-1-carbonyl)-4-(trifluoromethoxy)phenyl)propanamide] | – | 23.6 µM |
| COc1ccc(S(=O)(=O)Nc2ccc(F)cc2C(=O)N2CCC(Oc3ccc(-c4ccc(N(C)C)cc4)cn3)CC2)cc1OC [KDM3-60] | – | 35 µM |

Source: patent US20220348563A1, “KDM INHIBITORS AND USES THEREOF” (DANA-FARBER CANCER INSTITUTE, INC., priority 2019, published 2022)
